T1: recombinant TcPRODH (Trypanosoma cruzi, UniProt Q4CVA1)
T1 construct: gene Tc00.1047053506411.30; dimer (native gel of mitochondria, 140 kDa)
T1 sequence (Q4CVA1 17-566): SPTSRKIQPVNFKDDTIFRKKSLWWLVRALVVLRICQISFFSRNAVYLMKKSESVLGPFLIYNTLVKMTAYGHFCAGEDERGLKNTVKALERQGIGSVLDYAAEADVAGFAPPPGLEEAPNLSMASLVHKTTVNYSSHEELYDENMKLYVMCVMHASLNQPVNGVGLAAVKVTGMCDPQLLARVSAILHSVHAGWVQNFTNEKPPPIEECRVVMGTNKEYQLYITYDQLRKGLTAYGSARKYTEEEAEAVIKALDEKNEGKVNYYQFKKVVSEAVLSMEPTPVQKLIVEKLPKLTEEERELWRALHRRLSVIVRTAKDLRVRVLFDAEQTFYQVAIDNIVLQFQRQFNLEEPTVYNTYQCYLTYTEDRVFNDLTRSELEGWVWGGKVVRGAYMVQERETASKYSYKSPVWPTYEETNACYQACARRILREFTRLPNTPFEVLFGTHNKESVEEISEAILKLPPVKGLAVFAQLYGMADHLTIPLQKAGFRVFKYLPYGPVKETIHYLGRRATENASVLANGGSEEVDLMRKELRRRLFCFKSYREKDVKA

B1: recombinant TcPRODH (Trypanosoma cruzi strain CL Brener) (protein)
chain: T1 sequence (Q4CVA1 17-566)

Tests used:
[1] = target: T1, recombinant TcPRODH; experiment: UV-visible spectrum of purified enzyme; cofactor dependence of activity; type: biochemical; conditions: flavin peaks at 370 and 450 nm; NAD+ and NADP+ not accepted
[2] = substrate: O=C(O)[C@@H]1CCCN1; experiment: purified protein; conditions: DCPIP/phenazine methosulfate acceptor, MOPS, MgCl2, glycerol, pH 7.5, error printed as ±1.69 in text (b1)

Molecule	UV-visible spectrum of purified enzyme; cofactor dependence of activity [1]	Km [2] [µM]
Cc1cc2nc3c(=O)[nH]c(=O)nc-3n(C[C@H](O)[C@H](O)[C@H](O)COP(=O)(O)OP(=O)(O)OC[C@H]3O[C@@H](n4cnc5c(N)ncnc54)[C@H](O)[C@@H]3O)c2cc1C [FAD]	purified enzyme had a typical flavoprotein absorbance spectrum, characterized by two flavin absorption peaks	
B1		16.58 ± 6.08

— article PMC3718742, “Proline Dehydrogenase Regulates Redox State and Respiratory Metabolism in Trypanosoma cruzi” (PLoS ONE, 2013)
